These are literature values, as cited in patent US20240191206A1, “SERUM FREE MEDIA FOR SUSPENSION CULTURE OF MAMMALIAN LIVESTOCK PLURIPOTENT STEM CELLS” (ACCELLTA LTD., priority 2021, published 2024).

Molecules are shown by their SMILES.

As to `O=S(=O)(F)Cc1ccccc1` [PMSF, phenylmethylsulfonyl fluoride], the stability in water result is reported as “rapidly degraded”. For the same compound, in the data set on serine protease, the “concentration at which proteolytic inhibition occurs” value is 0.1 to 1 mM.
